Experimental data as given in the supplement of paper PMC8612539.
Converted amounts (≈) assume the structure as drawn.

System: Histophilus somni
Test: minimum inhibitory concentration (MIC)
Experimental: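 Broth microdilution MIC (Sensititre BOPO7F bovine plate, CLSI methods) of 19 antimicrobials against field isolates of P. multocida, M. haemolytica, H. somni (deep nasopharyngeal swabs) and E. coli, Enterococcus spp. (rectal swabs) from weaned dairy heifers. Incubation 16-24 h at 35 C. MIC is the lowest concentration preventing visible growth. Values with <= or > lie at the tested range limits. Trimethoprim-sulfamethoxazole is given as the trimethoprim component of a 1:19 mixture.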

NC[C@@H]1O[C@H](O[C@H]2[C@@H](O)[C@H](O[C@@H]3[C@@H](O)[C@H](N)C[C@H](N)[C@H]3O[C@H]3O[C@H](CN)[C@@H](O)[C@H](O)[C@H]3N)O[C@@H]2CO)[C@H](N)[C@@H](O)[C@@H]1O [Neomycin]
Conditions | minimum inhibitory concentration [µg/mL]
isolate (source animal id): 3 | 32 (≈ 52.1 µM)
isolate (source animal id): 4 | 32 (≈ 52.1 µM)
isolate (source animal id): 7 | 16 (≈ 26 µM)
isolate (source animal id): 14 | 16 (≈ 26 µM)
isolate (source animal id): 15 | 32 (≈ 52.1 µM)
isolate (source animal id): 17 | 16 (≈ 26 µM)
isolate (source animal id): 18 | 32 (≈ 52.1 µM)
isolate (source animal id): 20 | ≤ 4
isolate (source animal id): 23 | 32 (≈ 52.1 µM)
isolate (source animal id): 45 | 32 (≈ 52.1 µM)
isolate (source animal id): 53 | 32 (≈ 52.1 µM)
isolate (source animal id): 83 | 32 (≈ 52.1 µM)
isolate (source animal id): 88 | 32 (≈ 52.1 µM)
isolate (source animal id): 92 | > 32
isolate (source animal id): 93 | 8 (≈ 13 µM)
isolate (source animal id): 99 | > 32
isolate (source animal id): 100 | > 32
isolate (source animal id): 105 | 32 (≈ 52.1 µM)
isolate (source animal id): 107 | > 32
isolate (source animal id): 108 | > 32
isolate (source animal id): 109 | > 32
isolate (source animal id): 110 | > 32
isolate (source animal id): 117 | 16 (≈ 26 µM)
isolate (source animal id): 121 | 16 (≈ 26 µM)
isolate (source animal id): 123 | 32 (≈ 52.1 µM)
isolate (source animal id): 124 | 32 (≈ 52.1 µM)
isolate (source animal id): 127 | 32 (≈ 52.1 µM)
isolate (source animal id): 128 | 16 (≈ 26 µM)
isolate (source animal id): 130 | 16 (≈ 26 µM)
isolate (source animal id): 132 | 16 (≈ 26 µM)
isolate (source animal id): 135 | 16 (≈ 26 µM)
isolate (source animal id): 140 | 16 (≈ 26 µM)
isolate (source animal id): 141 | 16 (≈ 26 µM)
isolate (source animal id): 142 | > 32
isolate (source animal id): 144 | > 32
isolate (source animal id): 146 | > 32
isolate (source animal id): 147 | > 32
isolate (source animal id): 151 | 32 (≈ 52.1 µM)
isolate (source animal id): 153 | > 32
isolate (source animal id): 154 | > 32
isolate (source animal id): 156 | 32 (≈ 52.1 µM)
isolate (source animal id): 157 | > 32
isolate (source animal id): 176 | 32 (≈ 52.1 µM)
isolate (source animal id): 183 | 32 (≈ 52.1 µM)
isolate (source animal id): 186 | > 32
isolate (source animal id): 196 | > 32
isolate (source animal id): 198 | > 32
isolate (source animal id): 200 | > 32
isolate (source animal id): 206 | > 32
isolate (source animal id): 208 | > 32
isolate (source animal id): 210 | > 32
isolate (source animal id): 212 | 32 (≈ 52.1 µM)
isolate (source animal id): 215 | > 32
isolate (source animal id): 216 | > 32
isolate (source animal id): 218 | > 32
isolate (source animal id): 219 | > 32
isolate (source animal id): 224 | > 32
isolate (source animal id): 228 | 32 (≈ 52.1 µM)
isolate (source animal id): 230 | 32 (≈ 52.1 µM)
isolate (source animal id): 233 | > 32
isolate (source animal id): 238 | 16 (≈ 26 µM)
isolate (source animal id): 239 | 32 (≈ 52.1 µM)
isolate (source animal id): 241 | 32 (≈ 52.1 µM)
isolate (source animal id): 242 | 32 (≈ 52.1 µM)
isolate (source animal id): 243 | 32 (≈ 52.1 µM)
isolate (source animal id): 245 | > 32
isolate (source animal id): 246 | 32 (≈ 52.1 µM)
isolate (source animal id): 247 | 32 (≈ 52.1 µM)
isolate (source animal id): 248 | ≤ 4
isolate (source animal id): 250 | 32 (≈ 52.1 µM)
isolate (source animal id): 251 | 32 (≈ 52.1 µM)
isolate (source animal id): 252 | 32 (≈ 52.1 µM)
isolate (source animal id): 254 | 32 (≈ 52.1 µM)
isolate (source animal id): 258 | > 32
isolate (source animal id): 259 | > 32
isolate (source animal id): 262 | 32 (≈ 52.1 µM)
isolate (source animal id): 264 | 8 (≈ 13 µM)
isolate (source animal id): 265 | > 32
isolate (source animal id): 266 | > 32
isolate (source animal id): 267 | > 32
isolate (source animal id): 269 | > 32
isolate (source animal id): 271 | > 32
isolate (source animal id): 272 | > 32
isolate (source animal id): 274 | 32 (≈ 52.1 µM)
isolate (source animal id): 276 | ≤ 4
isolate (source animal id): 278 | > 32
isolate (source animal id): 280 | > 32
isolate (source animal id): 281 | > 32
isolate (source animal id): 283 | > 32
isolate (source animal id): 288 | > 32
isolate (source animal id): 291 | 32 (≈ 52.1 µM)
isolate (source animal id): 292 | > 32
isolate (source animal id): 296 | > 32
isolate (source animal id): 306 | > 32
isolate (source animal id): 336 | > 32
isolate (source animal id): 337 | > 32
isolate (source animal id): 341 | > 32

CC1(C)S[C@@H]2[C@H](NC(=O)Cc3ccccc3)C(=O)N2[C@H]1C(=O)O [Penicillin]
Conditions | minimum inhibitory concentration [µg/mL]
isolate (source animal id): 3 | ≤ 0.12
isolate (source animal id): 4 | ≤ 0.12
isolate (source animal id): 7 | ≤ 0.12
isolate (source animal id): 14 | ≤ 0.12
isolate (source animal id): 15 | 0.25 (≈ 0.748 µM)
isolate (source animal id): 17 | ≤ 0.12
isolate (source animal id): 18 | ≤ 0.12
isolate (source animal id): 20 | ≤ 0.12
isolate (source animal id): 23 | ≤ 0.12
isolate (source animal id): 45 | ≤ 0.12
isolate (source animal id): 53 | ≤ 0.12
isolate (source animal id): 83 | ≤ 0.12
isolate (source animal id): 88 | ≤ 0.12
isolate (source animal id): 92 | ≤ 0.12
isolate (source animal id): 93 | ≤ 0.12
isolate (source animal id): 99 | ≤ 0.12
isolate (source animal id): 100 | ≤ 0.12
isolate (source animal id): 105 | ≤ 0.12
isolate (source animal id): 107 | ≤ 0.12
isolate (source animal id): 108 | ≤ 0.12
isolate (source animal id): 109 | ≤ 0.12
isolate (source animal id): 110 | ≤ 0.12
isolate (source animal id): 117 | ≤ 0.12
isolate (source animal id): 121 | ≤ 0.12
isolate (source animal id): 123 | ≤ 0.12
isolate (source animal id): 124 | ≤ 0.12
isolate (source animal id): 127 | ≤ 0.12
isolate (source animal id): 128 | ≤ 0.12
isolate (source animal id): 130 | ≤ 0.12
isolate (source animal id): 132 | ≤ 0.12
isolate (source animal id): 135 | ≤ 0.12
isolate (source animal id): 140 | ≤ 0.12
isolate (source animal id): 141 | ≤ 0.12
isolate (source animal id): 142 | ≤ 0.12
isolate (source animal id): 144 | ≤ 0.12
isolate (source animal id): 146 | ≤ 0.12
isolate (source animal id): 147 | ≤ 0.12
isolate (source animal id): 151 | ≤ 0.12
isolate (source animal id): 153 | ≤ 0.12
isolate (source animal id): 154 | ≤ 0.12
isolate (source animal id): 156 | ≤ 0.12
isolate (source animal id): 157 | ≤ 0.12
isolate (source animal id): 176 | ≤ 0.12
isolate (source animal id): 183 | ≤ 0.12
isolate (source animal id): 186 | ≤ 0.12
isolate (source animal id): 196 | ≤ 0.12
isolate (source animal id): 198 | ≤ 0.12
isolate (source animal id): 200 | ≤ 0.12
isolate (source animal id): 206 | ≤ 0.12
isolate (source animal id): 208 | ≤ 0.12
isolate (source animal id): 210 | ≤ 0.12
isolate (source animal id): 212 | ≤ 0.12
isolate (source animal id): 215 | ≤ 0.12
isolate (source animal id): 216 | ≤ 0.12
isolate (source animal id): 218 | ≤ 0.12
isolate (source animal id): 219 | ≤ 0.12
isolate (source animal id): 224 | ≤ 0.12
isolate (source animal id): 228 | ≤ 0.12
isolate (source animal id): 230 | ≤ 0.12
isolate (source animal id): 233 | ≤ 0.12
isolate (source animal id): 238 | ≤ 0.12
isolate (source animal id): 239 | ≤ 0.12
isolate (source animal id): 241 | ≤ 0.12
isolate (source animal id): 242 | ≤ 0.12
isolate (source animal id): 243 | ≤ 0.12
isolate (source animal id): 245 | 0.25 (≈ 0.748 µM)
isolate (source animal id): 246 | ≤ 0.12
isolate (source animal id): 247 | ≤ 0.12
isolate (source animal id): 248 | ≤ 0.12
isolate (source animal id): 250 | ≤ 0.12
isolate (source animal id): 251 | ≤ 0.12
isolate (source animal id): 252 | ≤ 0.12
isolate (source animal id): 254 | 0.25 (≈ 0.748 µM)
isolate (source animal id): 258 | ≤ 0.12
isolate (source animal id): 259 | ≤ 0.12
isolate (source animal id): 262 | ≤ 0.12
isolate (source animal id): 264 | ≤ 0.12
isolate (source animal id): 265 | 8 (≈ 23.9 µM)
isolate (source animal id): 266 | ≤ 0.12
isolate (source animal id): 267 | ≤ 0.12
isolate (source animal id): 269 | ≤ 0.12
isolate (source animal id): 271 | ≤ 0.12
isolate (source animal id): 272 | 8 (≈ 23.9 µM)
isolate (source animal id): 274 | ≤ 0.12
isolate (source animal id): 276 | ≤ 0.12
isolate (source animal id): 278 | ≤ 0.12
isolate (source animal id): 280 | 0.5 (≈ 1.5 µM)
isolate (source animal id): 281 | ≤ 0.12
isolate (source animal id): 283 | 0.25 (≈ 0.748 µM)
isolate (source animal id): 288 | ≤ 0.12
isolate (source animal id): 291 | ≤ 0.12
isolate (source animal id): 292 | ≤ 0.12
isolate (source animal id): 296 | ≤ 0.12
isolate (source animal id): 306 | ≤ 0.12
isolate (source animal id): 336 | ≤ 0.12
isolate (source animal id): 337 | ≤ 0.12
isolate (source animal id): 341 | ≤ 0.12
